# According to PMC5298231, “The Malaria Parasite's Lactate Transporter PfFNT Is the Target of Antiplasmodial Compounds Identified in Whole Cell Phenotypic Screens” (PLoS Pathogens, 2017):
# Peptide text beside a SMILES is read from it.
# Tested on: erythrocytes infected with 3D7 trophozoites
# Assay type: cell-based, Plasmodium falciparum
# Details: sheet Ratio; for Ratio of metabolite abundance, Exp1_1hr: Exp1, 1hr; for Ratio of metabolite abundance, Exp1_3hr: Exp1, 3hr; for Ratio of metabolite abundance, Exp1_6hr: Exp1, 6hr; for Ratio of metabolite abundance, Exp2_1hr: Exp2, 1hr; for Ratio of metabolite abundance, Exp2_3hr: Exp2, 3hr; for Ratio of metabolite abundance, Exp2_6hr: Exp2, 6hr; for Ratio of metabolite abundance, Exp3_1hr: Exp3, 1hr; for Ratio of metabolite abundance, Exp3_3hr: Exp3, 3hr; for Ratio of metabolite abundance, Exp3_6hr: Exp3, 6hr
SMILES,"Ratio of metabolite abundance, Exp1_1hr","Ratio of metabolite abundance, Exp1_3hr","Ratio of metabolite abundance, Exp1_6hr","Ratio of metabolite abundance, Exp2_1hr","Ratio of metabolite abundance, Exp2_3hr","Ratio of metabolite abundance, Exp2_6hr","Ratio of metabolite abundance, Exp3_1hr","Ratio of metabolite abundance, Exp3_3hr","Ratio of metabolite abundance, Exp3_6hr"
O=C[C@H](O)[C@H](O)COP(=O)(O)O [Erythrose 4-phosphate],0.8874,1.021,0.7492,0.7497,0.9809,0.8462,0.7238,0.584,0.3651
Cc1cc2nc3c(=O)[nH]c(=O)nc-3n(C[C@H](O)[C@H](O)[C@H](O)COP(=O)(O)OP(=O)(O)OC[C@H]3O[C@@H](n4cnc5c(N)ncnc54)[C@H](O)[C@@H]3O)c2cc1C [FAD],0.999,0.6842,0.7003,0.9752,0.8156,0.7377,0.855,0.7422,0.5377
Cc1cc2nc3c(=O)[nH]c(=O)nc-3n(C[C@H](O)[C@H](O)[C@H](O)COP(=O)(O)O)c2cc1C [FMN],0.8812,0.6056,0.6532,1.341,1.123,0.8423,0.5112,0.5214,0.5073
O=P(O)(O)OC[C@H]1O[C@](O)(COP(=O)(O)O)[C@@H](O)[C@@H]1O [Fructose-1-6-bisphosphate],2.629,3.883,1.856,2.007,1.872,1.498,1.953,1.49,0.822
O=P(O)(O)OC[C@H]1OC(O)(CO)[C@@H](O)[C@@H]1O (stereo partly drawn) [Fructose-6-Phosphate],1.008,1.026,1.013,1.111,1.041,0.9386,1.073,1.052,0.8397
Nc1nc2c(ncn2[C@@H]2O[C@H](COP(=O)(O)OP(=O)(O)O[C@H]3O[C@H](CO)[C@@H](O)[C@H](O)[C@@H]3O)[C@@H](O)[C@H]2O)c(=O)[nH]1 [GDP-mannose],1.172,0.7132,0.4189,0.9396,0.7145,0.4773,0.9382,0.7837,0.5338
Nc1nc2c(ncn2[C@@H]2O[C@H](COP(=O)(O)OP(=O)(O)O)[C@@H](O)[C@H]2O)c(=O)[nH]1 [GDP],0.4319,0.3131,0.5082,0.6304,0.5095,0.5364,0.8846,0.5153,0.569
Nc1nc2c(ncn2[C@@H]2O[C@H](COP(=O)(O)O)[C@@H](O)[C@H]2O)c(=O)[nH]1 [GMP],0.2584,0.2388,0.4652,0.6356,0.2451,0.4274,0.5874,0.5355,0.8077
Nc1nc2c(ncn2[C@@H]2O[C@H](COP(=O)(O)OP(=O)(O)OP(=O)(O)O)[C@@H](O)[C@H]2O)c(=O)[nH]1 [GTP],0.6647,0.5629,0.5991,0.6384,0.6479,0.6462,0.7156,0.6328,0.6081
O=P(O)(O)OC[C@H]1OC(O)[C@H](O)[C@@H](O)[C@@H]1O (stereo partly drawn) [Glucose-6-Phosphate],0.8219,0.7353,0.7494,0.9729,0.8323,0.7319,0.8489,0.791,0.6337
N[C@@H](CCC(=O)O)C(=O)O [Glutamate],1.14,0.9816,0.9735,1.0715,0.9058,0.8408,1.009,0.9619,1.158
O=C[C@H](O)COP(=O)(O)O [Glyceraldehyde 3-phosphate],0.7448,0.7431,0.4349,0.5818,0.6033,0.4986,0.4745,0.6544,0.4238
O=C(CO)COP(=O)(O)O [Glycerone phosphate],2.2,2.096,0.8912,1.254,1.043,0.7007,1.243,1.057,0.7275
CC(C)C[C@H](NC(=O)[C@@H](N)Cc1cnc[nH]1)C(=O)N[C@@H](CC(=O)O)C(=O)O [HLD] (H-His-Leu-Asp-OH),0.6785,0.3938,1.496,0.9181,0.5663,1.359,0.7775,0.6588,1.57
CC(C)[C@H](NC(=O)[C@@H](N)Cc1c[nH]cn1)C(=O)N[C@@H](CC(=O)O)C(=O)N[C@@H](CC(=O)O)C(=O)O [HVDD] (H-HVDD-OH),0.5307,0.3298,0.7281,0.7593,0.3961,1.162,0.6174,0.4236,1.2463
O=C(O)[C@@H]1CC(O)CN1 (stereo partly drawn) [Hydroxy-L-proline],1.2334,0.9688,0.6326,1.182,1.17,1.132,1.1402,1.1046,1.082
